Values quoted from earlier work in patent publication US20120172333A1, “PYRROLO-PYRIDINE DERIVATIVES AS ACTIVATORS OF AMPK” (GLAXOSMITHKLINE LLC, priority 2009, published 2012).

System: ob/ob and db/db mice
Conditions: 8 day administration

For `NC(=O)c1ncn([C@@H]2O[C@H](CO)[C@@H](O)[C@H]2O)c1N` [AICAR], the “reduction of blood glucose” value is listed as 35%.
